Results taken from patent US20240368406A1, “STABLE LIQUID PHANTOM FOR NEAR-INFRARED FLUORESCENCE VERIFICATION” (SURGVISION GMBH, priority 2021, published 2024).

How the values were obtained:
Assay type in all cases: physicochemical
[1] = Stability of the phantom solutions at +2-8° C. during long-term storage (residual absorbance); details: 3 μM dye in HEPES 10 mM, pH 7.0, +2-8° C. protected from light
Method: Stability was measured as reduction in the absorbance at the maximum wavelength of the dye acquired using a UV/VIS spectrophotometer, denoting reduction of the dye monomer content in solution. […] A decrease in absorbance is associated with the reduction of the concentration of the dye in the formulation buffer, indicating low stability and degradation of the main chromophore species. The stability of the formulations under long-term storage conditions was also investigated. In particular, samples of 3 μM IRDye […] and 3 μM IRDye 800BK dissolved in HEPES buffer were stored refrigerated at +2-8° C. protected from light exposure for at least 6 months. For the long-term stability study at 2-8° C., samples of.

[2] = Stability of the phantom solutions at +2-8° C. in the presence of additives (residual absorbance); details: +2-8° C.
Method: (§1) Stability was measured as reduction in the absorbance at the maximum wavelength of the dye acquired using a UV/VIS spectrophotometer, denoting reduction of the dye monomer content in solution. All the results were then reported as residual percentage vs the baseline (T=0), wherein at time=0 the percentage is 100%. A decrease in absorbance is associated with the reduction of the concentration of the dye in the formulation buffer, indicating low stability and degradation of the main chromophore species.
The effect of the presence of an additive on the stability of the formulations of the invention has been also investigated.
The preparation of the above buffers is described below:
50 mM HEPES (pH 7.4)+0.04% Tween 20: to prepare 100 mL of buffering solution, 1.19 g of HEPES were dissolved in 80 mL of water; 40 μL of Tween 20 were added and the pH was adjusted to 7.4 with 0.1 M HCl. The buffering solution was then brought to 100 mL volume with water and filtered on 0.22 μm membrane in sterile conditions.
50 mM HEPES (PH 7.4)+0.02% Sodium Azide: to prepare 100 mL of buffering solution, 1.19 g of HEPES and 20 mg of Sodium Azide were dissolved in 80 mL of water and the pH was adjusted to 7.4 with 0.1 M HCl. The buffering solution was then brought to 100 mL volume with water and filtered on 0.22 μm membrane in sterile conditions.
10 mM HEPES (PH 7.0)+10% EtOH: to prepare 100 mL of buffering solution, 0.24 g of HEPES were dissolved in 80 mL of water and the pH was adjusted to 7.0 with 0.1 M HCl.
Then, 10 mL of 100% Ethanol were added. The buffering solution was then brought to 100 mL volume with water and filtered on 0.22 μm membrane in sterile conditions.
Analogous solutions were prepared with the same procedure for MOPS, BES and TRICINE buffers.

[3] = Stability of the phantom solutions at +2-8° C. (residual absorbance, UV/VIS)
Method: Several stability studies were performed to evaluate the effect of different buffers, additives such as excipients or preservatives, and storage conditions on the dye formulation. In particular the stability of the formulations after storage at +2-8° C. in a refrigerator was firstly investigated.
as §1
In the Tables below the residual absorbance of different dyes, i.e. […] and S0456, in some representative organic buffering solutions is reported after storage of the formulations at +2-8° C.

CC1(C)C(/C=C/C2=C(Oc3ccc(S(=O)(=O)O)cc3)C(=C/C=C3\N(CCCCS(=O)(=O)[O-])c4ccc(S(=O)(=O)O)cc4C3(C)C)/CCC2)=[N+](CCCCS(=O)(=O)O)c2ccc(S(=O)(=O)O)cc21 [IRDye 800BK]
Residual absorbance percentage ([1]; 1 month): 99.1% | Residual absorbance percentage ([1]; 3 months): 94.1% | Residual absorbance percentage ([1]; 6 months): 93.3% | Residual absorbance percentage ([2]; 3 μM dye in BES (10 mM, pH 7.0) +10% EtOH, 1 week): 99.2% | Residual absorbance percentage ([2]; 3 μM dye in BES (10 mM, pH 7.0) +10% EtOH, 2 weeks): 98.2% | Residual absorbance percentage ([2]; 3 μM dye in BES (10 mM, pH 7.0) +10% EtOH, 4 weeks): 97.2% | Residual absorbance percentage ([2]; 3 μM dye in HEPES (10 mM, pH 7.0) +10% EtOH, 1 week): 97.8% | Residual absorbance percentage ([2]; 3 μM dye in HEPES (10 mM, pH 7.0) +10% EtOH, 2 weeks): 97.2% | Residual absorbance percentage ([2]; 3 μM dye in HEPES (10 mM, pH 7.0) +10% EtOH, 4 weeks): 95.1% | Residual absorbance percentage ([2]; 3 μM dye in MOPS (10 mM, pH 7.0) +10% EtOH, 1 week): 97.6% | Residual absorbance percentage ([2]; 3 μM dye in MOPS (10 mM, pH 7.0) +10% EtOH, 2 weeks): 95.8% | Residual absorbance percentage ([2]; 3 μM dye in MOPS (10 mM, pH 7.0) +10% EtOH, 4 weeks): 92.9% | Residual absorbance percentage ([3]; 3 μM dye in BES buffer 10 mM, pH 7.0, +2-8° C., 1 week): 97.6% | Residual absorbance percentage ([3]; 3 μM dye in BES buffer 10 mM, pH 7.0, +2-8° C., 2 weeks): 94.8% | Residual absorbance percentage ([3]; 3 μM dye in BES buffer 10 mM, pH 7.0, +2-8° C., 4 weeks): 92.0% | Residual absorbance percentage ([3]; 3 μM dye in BES buffer 10 mM, pH 7.4, +2-8° C., 1 week): 97.6% | Residual absorbance percentage ([3]; 3 μM dye in BES buffer 10 mM, pH 7.4, +2-8° C., 2 weeks): 94.4% | Residual absorbance percentage ([3]; 3 μM dye in BES buffer 10 mM, pH 7.4, +2-8° C., 4 weeks): 91.5% | Residual absorbance percentage ([3]; 3 μM dye in BES buffer 10 mM, pH 7.8, +2-8° C., 1 week): 96.4% | Residual absorbance percentage ([3]; 3 μM dye in BES buffer 10 mM, pH 7.8, +2-8° C., 2 weeks): 92.4% | Residual absorbance percentage ([3]; 3 μM dye in BES buffer 10 mM, pH 7.8, +2-8° C., 4 weeks): 88.1% | Residual absorbance percentage ([3]; 3 μM dye in BES buffer 50 mM, pH 7.0, +2-8° C., 1 week): 96.8% | Residual absorbance percentage ([3]; 3 μM dye in BES buffer 50 mM, pH 7.0, +2-8° C., 2 weeks): 93.5% | Residual absorbance percentage ([3]; 3 μM dye in BES buffer 50 mM, pH 7.0, +2-8° C., 4 weeks): 90.0% | Residual absorbance percentage ([3]; 3 μM dye in BES buffer 50 mM, pH 7.4, +2-8° C., 1 week): 97.2% | Residual absorbance percentage ([3]; 3 μM dye in BES buffer 50 mM, pH 7.4, +2-8° C., 2 weeks): 94.0% | Residual absorbance percentage ([3]; 3 μM dye in BES buffer 50 mM, pH 7.4, +2-8° C., 4 weeks): 90.5% | Residual absorbance percentage ([3]; 3 μM dye in BES buffer 50 mM, pH 7.8, +2-8° C., 1 week): 95.9% | Residual absorbance percentage ([3]; 3 μM dye in BES buffer 50 mM, pH 7.8, +2-8° C., 2 weeks): 91.7% | Residual absorbance percentage ([3]; 3 μM dye in BES buffer 50 mM, pH 7.8, +2-8° C., 4 weeks): 89.6% | Residual absorbance percentage ([3]; 3 μM dye in MOPS buffer 10 mM, pH 7.0, +2-8° C., 1 week): 97.9% | Residual absorbance percentage ([3]; 3 μM dye in MOPS buffer 10 mM, pH 7.0, +2-8° C., 2 weeks): 95.7% | Residual absorbance percentage ([3]; 3 μM dye in MOPS buffer 10 mM, pH 7.0, +2-8° C., 4 weeks): 93.7% | Residual absorbance percentage ([3]; 3 μM dye in MOPS buffer 10 mM, pH 7.4, +2-8° C., 1 week): 97.9% | Residual absorbance percentage ([3]; 3 μM dye in MOPS buffer 10 mM, pH 7.4, +2-8° C., 2 weeks): 95.3% | Residual absorbance percentage ([3]; 3 μM dye in MOPS buffer 10 mM, pH 7.4, +2-8° C., 4 weeks): 93.6% | Residual absorbance percentage ([3]; 3 μM dye in MOPS buffer 10 mM, pH 7.8, +2-8° C., 1 week): 96.9% | Residual absorbance percentage ([3]; 3 μM dye in MOPS buffer 10 mM, pH 7.8, +2-8° C., 2 weeks): 94.1% | Residual absorbance percentage ([3]; 3 μM dye in MOPS buffer 10 mM, pH 7.8, +2-8° C., 4 weeks): 91.1% | Residual absorbance percentage ([3]; 3 μM dye in MOPS buffer 50 mM, pH 7.0, +2-8° C., 1 week): 97.4% | Residual absorbance percentage ([3]; 3 μM dye in MOPS buffer 50 mM, pH 7.0, +2-8° C., 2 weeks): 94.6% | Residual absorbance percentage ([3]; 3 μM dye in MOPS buffer 50 mM, pH 7.0, +2-8° C., 4 weeks): 92.0% | Residual absorbance percentage ([3]; 3 μM dye in MOPS buffer 50 mM, pH 7.4, +2-8° C., 1 week): 97.5% | Residual absorbance percentage ([3]; 3 μM dye in MOPS buffer 50 mM, pH 7.4, +2-8° C., 2 weeks): 94.9% | Residual absorbance percentage ([3]; 3 μM dye in MOPS buffer 50 mM, pH 7.4, +2-8° C., 4 weeks): 92.6% | Residual absorbance percentage ([3]; 3 μM dye in MOPS buffer 50 mM, pH 7.8, +2-8° C., 1 week): 97.0% | Residual absorbance percentage ([3]; 3 μM dye in MOPS buffer 50 mM, pH 7.8, +2-8° C., 2 weeks): 94.0% | Residual absorbance percentage ([3]; 3 μM dye in MOPS buffer 50 mM, pH 7.8, +2-8° C., 4 weeks): 91.3%
